This passage reports Emax, EC50 and IC50 results from patent publication US20120115845A1, “THERAPEUTIC AGENTS” (priority 2007, published 2012).

The structures appear in SMILES notation. Where only a bound is given, the exact number is not on record here.

The target in assay [1] is T1, human GHS receptor (Homo sapiens, UniProt Q92847). In words: Ghrelin IP1 agonist assay (IP1 HTRF). To be noted: for Emax: 2 h, agonist effect as % maximal effect of GHRP-6 (5 μM), read-out: h IP1 ag %; for EC50: HEK293s cells stably expressing human GHS receptor, 2 hours at 37° C., read-out: h IP1 ag EC50. It counts as cell-based. Further details: expressed in transfected cells; host or cells: HEK293s. In a few lines: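 Cells: HEK293s stably expressing human GHS receptor, in stimulation buffer containing 0.02% fatty acid free BSA.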

In assay [2] the target is T1, human GHS receptor. Description: h bind IC50 (binding assay, Table 1). To be noted: human receptor; Table 1.

T1 sequence (Q92847 whole entry): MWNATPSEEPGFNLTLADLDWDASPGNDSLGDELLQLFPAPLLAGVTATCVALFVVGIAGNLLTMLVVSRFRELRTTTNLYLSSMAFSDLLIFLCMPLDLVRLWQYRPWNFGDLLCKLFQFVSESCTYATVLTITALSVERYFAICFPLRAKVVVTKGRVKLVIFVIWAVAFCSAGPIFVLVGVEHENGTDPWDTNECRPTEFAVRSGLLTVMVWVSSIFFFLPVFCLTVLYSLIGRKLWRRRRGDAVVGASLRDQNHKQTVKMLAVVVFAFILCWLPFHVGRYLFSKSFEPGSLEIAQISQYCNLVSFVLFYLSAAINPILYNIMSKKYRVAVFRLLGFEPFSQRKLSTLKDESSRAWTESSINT

Turning to `CS(=O)(=O)c1ccc2nc(NC(=O)NC(=O)c3cc(-c4ncccn4)ccc3Cl)sc2c1` [Example 57, 2-Chloro-N-(6-(methylsulfonyl)benzothiazol-2-ylcarbamoyl)-5-(pyrimidin-2-yl)benzamide], on human GHS receptor [1], the Emax is 0% and the EC50 was above 25000 nM. In addition, the IC50 on human GHS receptor [2] stood at 162 nM.
The corresponding values for `O=C(NC(=O)c1cc(-n2cccc2)ccc1Cl)Nc1nc2ccc(S(=O)(=O)CCCNCC3CC3)cc2s1` [Example 72, 2-Chloro-N-[[6-[3-(cyclopropylmethylamino)propylsulfonyl]benzothiazol-2-yl]carbamoyl]-5-pyrrol-1-yl-benzamide] are 6.6%, 6070 nM and 0.3 nM.
For `CN1CCN(CCCS(=O)(=O)c2ccc3nc(NC(=O)NC(=O)c4cc(-n5cncn5)ccc4Cl)sc3c2)CC1` [Example 95, 2-Chloro-N-(6-(3-(4-methylpiperazin-1-yl)propylsulfonyl)benzothiazol-2-ylcarbamoyl)-5-(1H-1,2,4-triazol-1-yl)benzamide], in that order: 9.48%, 1160 nM and 10.7 nM.
For `Cc1cc(CS(=O)(=O)c2ccc3nc(NC(=O)NC(=O)c4ccccc4Cl)sc3c2)no1` [Example 188, 2-Chloro-N-[[6-[(5-methyl-1,2-oxazol-3-yl)methylsulfonyl]benzothiazol-2-yl]carbamoyl]benzamide], in that order: 16.4%, 52.1 nM and 53.8 nM.
In the case of `O=C(NC(=O)c1ccccc1Cl)Nc1nc2ccc(S(=O)(=O)Cc3cccnc3)cc2s1` [Example 187, 2-Chloro-N-[[6-(pyridin-3-ylmethylsulfonyl)benzothiazol-2-yl]carbamoyl]benzamide], on human GHS receptor [1], the Emax came to 16.1% and the concentration for a half-maximal effect (EC50) was 5.95 nM. Moreover, the IC50 on human GHS receptor [2] is 58.1 nM.
Take `CS(=O)(=O)c1ccc2nc(NC(=O)NC(=O)c3cc(Br)ccc3Cl)sc2c1` [Example 161, 5-Bromo-2-chloro-N-[(6-methylsulfonylbenzothiazol-2-yl)carbamoyl]benzamide]: at human GHS receptor [1], the Emax is 56% and the EC50 came to 6.18 nM. The IC50 at human GHS receptor [2] amounted to 105 nM.
For `Cc1ccnn1-c1ccc(Cl)c(C(=O)NC(=O)Nc2nc3ccc(S(=O)(=O)CCCN4CCN(C)CC4)cc3s2)c1` [Example 90, 2-Chloro-5-(5-methyl-1H-pyrazol-1-yl)-N-(6-(3-(4-methylpiperazin-1-yl)propylsulfonyl)benzothiazol-2-ylcarbamoyl)benzamide], in that order: 0%, above 25000 nM and 0.7 nM.
For `CCOc1ccc(Cl)c(C(=O)NC(=O)Nc2nc3ccc(S(C)(=O)=O)cc3s2)c1` [Example 53, 2-Chloro-5-ethoxy-N-(6-(methylsulfonyl)benzothiazol-2-ylcarbamoyl)benzamide], on human GHS receptor [1], the Emax is 0% and the half-maximal effective concentration (EC50) was at least 25000 nM. This compound also came in with an IC50 on human GHS receptor [2] of 10 nM.
For `O=C(NC(=O)c1ccccc1Cl)Nc1nc2ccc(S(=O)(=O)CCC3CCNCC3)cc2s1` [Example 221, 2-Chloro-N-[[6-[2-(4-piperidyl)ethylsulfonyl]benzothiazol-2-yl]carbamoyl]benzamide], in that order: 65%, 18.7 nM and 15.4 nM.
The corresponding values for `CC(C)NCCS(=O)(=O)c1ccc2nc(NC(=O)NC(=O)c3cc(-n4cccc4)ccc3Br)sc2c1` [Example 83, 2-Bromo-N-(6-(2-(isopropylamino)ethylsulfonyl)benzothiazol-2-ylcarbamoyl)-5-(1H-pyrrol-1-yl)benzamide] are 0%, at least 25000 nM and 1.3 nM.
Regarding `CN1CCN(CCCS(=O)(=O)c2ccc3nc(NC(=O)NC(=O)c4cc(-n5cccn5)ccc4Cl)sc3c2)CC1` [Example 88, 2-Chloro-N-(6-(3-(4-methylpiperazin-1-yl)propylsulfonyl)benzothiazol-2-ylcarbamoyl)-5-(1H-pyrazol-1-yl)benzamide], at human GHS receptor [1], the Emax turned out to be 4.42% and the EC50 was at least 25000 nM. This compound also had an IC50 on human GHS receptor [2] of 0.7 nM.
